Measurements from patent publication US11008323B2, “Substituted tricyclic 1,4-benzodiazepinone derivatives as allosteric modulators of group II metabotropic glutamate receptors” (Domain Therapeutics, priority 2015, dated 2021).
Counter-ions that a name gives are not always drawn.

With `Cc1ncccc1-c1ccc2c(c1)-n1cc(-c3ncc[nH]3)cc1C(=O)N(C)C21CC1` (as salt: hydrochloride) [Example 184] the melting point was > 250 °C.
With `CN1C(=O)c2cccn2-c2cc(-c3ccc(N4CCOCC4)nc3)ccc2C12CC2` (as salt: hydrochloride) [Example 42, 5-Methyl-9-(6-morpholin-4-yl-pyridin-3-yl)-spiro[benzo[f]pyrrolo[1,2-a][1,4]diazepine-6,1′-cyclopropan]-4(5H)-one] the melting point was 191 to 199 °C.
For `Cc1ncccc1-c1ccc2c(c1)-n1cc(-c3cnc[nH]3)cc1C(=O)N(C)C21CC1` (as salt: hydrochloride) [Example 183], the melting point was > 250 °C.
Compound `Cc1ncccc1-c1ccc2c(c1)-n1c(F)ccc1C(=O)N(C)C21CC1` (as salt: hydrochloride) [Example 81, 9-(2-Methyl-pyridin-3-yl)-1-fluoro-5-methyl-spiro[benzo[f]pyrrolo[1,2-a][1,4]diazepine-6,1′-cyclopropan]-4(5H)-one] has a melting point of 150 to 158 °C.
Compound `Cc1ncccc1-c1ccc2c(c1)-n1cc(C(F)F)cc1C(=O)N(C)C21CC1` (as salt: hydrochloride) [Example 201] has a melting point of 240 to 250 °C.
Work on `CN(C)c1ncccc1-c1ccc2c(c1)-n1cc(-c3ccccc3)cc1C(=O)N(C)C21CC1` (as salt: hydrochloride) [Example 119, 5-Methyl-2-phenyl-9-(2-dimethylamino-pyridin-3-yl)-spiro[benzo[f]pyrrolo[1,2-a][1,4]diazepine-6,1′-cyclopropan]-4(5H)-one] yielded a melting point of 209 to 213 °C.
For `Cc1ncccc1-c1ccc2c(c1)-n1cc(C3CCCC3)cc1C(=O)N(C)C21CC1` (as salt: hydrochloride) [Example 156], the melting point was 230 to 235 °C.
In the case of `Cc1ccncc1-c1ccc2c(c1)-n1cc(-c3ccccc3)cc1C(=O)N(C)C21CC1` (as salt: hydrochloride) [Example 101, 5-Methyl-2-phenyl-9-(4-methyl-pyridin-3-yl)-spiro[benzo[f]pyrrolo[1,2-a][1,4]diazepine-6,1′-cyclopropan]-4(5H)-one], the melting point was 205 to 217 °C.
`CN1C(=O)c2cc(-c3ccccc3)cn2-c2cc(-c3cncnc3)ccc2C12CC2` (as salt: hydrochloride) [Example 104, 5-Methyl-2-phenyl-9-(pyrimidin-5-yl)-spiro[benzo[f]pyrrolo[1,2-a][1,4]diazepine-6,1′-cyclopropan]-4(5H)-one] showed a melting point of 168 to 173 °C.
Work on `Cc1ncccc1-c1ccc2c(c1)-n1cc(-c3ccccc3)cc1C(=O)N(C)C21CC1` (as salt: hydrochloride) [Example 95, 5-Methyl-2-phenyl-9-(2-methyl-pyridin-3-yl)-spiro[benzo[f]pyrrolo[1,2-a][1,4]diazepine-6,1′-cyclopropan]-4(5H)-one] yielded a melting point of 174 to 180 °C.
`Cc1ccc(-c2ccc3c(c2)-n2cc(-c4ccccc4)cc2C(=O)N(C)C32CC2)c(C)n1` (as salt: hydrochloride) [Example 107, 5-Methyl-2-phenyl-9-(2,6-dimethyl-pyridin-3-yl)-spiro[benzo[f]pyrrolo[1,2-a][1,4]diazepine-6,1′-cyclopropan]-4(5H)-one] showed a melting point of 206 to 214 °C.
With `Cc1ncccc1-c1ccc2c(c1)-n1cc(CC3CCCC3)cc1C(=O)N(C)C21CC1` (as salt: hydrochloride) [Example 196] the melting point was 165 to 176 °C.
For `Cc1ncccc1-c1ccc2c(c1)-n1cc(-c3nccs3)cc1C(=O)N(C)C21CC1` (as salt: hydrochloride) [Example 157], the melting point was 240 to 245 °C.
For `CN1C(=O)c2cc(C(=O)O)cn2-c2cc(-c3ccc(F)nc3)ccc2C12CC2` [Example 177, 5-Methyl-9-(6-fluoro-pyridin-3-yl)-4-oxo-4,5-dihydrospiro[benzo[f]pyrrolo[1,2-a][1,4]diazepine-6,1′-cyclopropane]-2-carboxylic acid], the melting point was > 250 °C.
`CN1C(=O)c2cccn2-c2cc(C3=CCN(c4ccncn4)CC3)ccc2C12CC2` (as salt: hydrochloride) [Example 47, 5-Methyl-9-(1-pyrimidin-4-yl-1,2,3,6-tetrahydro-pyridin-4-yl)-spiro[benzo[f]pyrrolo[1,2-a][1,4]diazepine-6,1′-cyclopropan]-4(5H)-one] showed a melting point of 210 to 220 °C.
Compound `CN(C)c1ccc(-c2ccc3c(c2)-n2cc(-c4ccccc4)cc2C(=O)N(C)C32CC2)cn1` (as salt: hydrochloride) [Example 114, 5-Methyl-2-phenyl-9-(6-dimethylamino-pyridin-3-yl)-spiro[benzo[f]pyrrolo[1,2-a][1,4]diazepine-6,1′-cyclopropan]-4(5H)-one] has a melting point of 200 to 208 °C.
For `Cc1ccc(-c2ccc3c(c2)-n2nc(-c4ccccc4)cc2C(=O)N(C)C32CC2)c(C)n1` (as salt: hydrochloride) [Example 126, 9-(2,6-Dimethyl-pyridin-3-yl)-5-methyl-2-phenyl-spiro[benzo[f]pyrazolo[1,5-a][1,4]diazepine-6,1′-cyclopropan]-4(5H)-one], the melting point was > 250 °C.
In the case of `CN(C)c1ccc2c(c1)-n1cc(-c3ccccc3)cc1C(=O)N(C)C21CC1` (as salt: hydrochloride) [Example 115, 9-Dimethylamino-5-methyl-2-phenyl-spiro[benzo[f]pyrrolo[1,2-a][1,4]diazepine-6,1′-cyclopropan]-4(5H)-one], the melting point was 160 to 170 °C.
For `CN1C(=O)c2cccn2-c2cc(-c3cccnc3)ccc2C12CC2` (as salt: hydrochloride) [Example 23, 5-Methyl-9-(pyridin-3-yl)-spiro[benzo[f]pyrrolo[1,2-a][1,4]diazepine-6,1′-cyclopropan]-4(5H)-one], the melting point was > 250 °C.
With `CCc1ncccc1-c1ccc2c(c1)-n1cc(-c3ccccc3F)cc1C(=O)N(C)C21CC1` (as salt: hydrochloride) [Example 162] the melting point was 189 to 195 °C.
For `Cc1ccc(-c2ccc3c(c2)-n2cccc2C(=O)N(C)C32CC2)cn1` (as salt: hydrochloride) [Example 25, 5-Methyl-9-(6-methylpyridin-3-yl)-spiro[benzo[f]pyrrolo[1,2-a][1,4]diazepine-6,1′-cyclopropan]-4(5H)-one], the melting point was 205 to 215 °C.
`CCc1ncccc1-c1ccc2c(c1)-n1cccc1C(=O)N(C)C21CC1` (as salt: hydrochloride) [Example 24, 5-Methyl-9-(2-ethylpyridin-3-yl)-spiro[benzo[f]pyrrolo[1,2-a][1,4]diazepine-6,1′-cyclopropan]-4(5H)-one] showed a melting point of 136 to 143 °C.
With `Cc1ncccc1-c1ccc2c(c1)-n1cc(-c3cccnc3)cc1C(=O)N(C)C21CC1` (as salt: hydrochloride) [Example 143] the melting point was > 250 °C.
Compound `CN1C(=O)c2cc(-c3ccccc3)cn2-c2cc(-c3ccncc3)ccc2C12CC2` (as salt: hydrochloride) [Example 102, 5-Methyl-2-phenyl-9-(pyridin-4-yl)-spiro[benzo[f]pyrrolo[1,2-a][1,4]diazepine-6,1′-cyclopropan]-4(5H)-one] has a melting point of 220 to 230 °C.
`Cc1ncccc1-c1ccc2c(c1)-n1cc(-c3cnco3)cc1C(=O)N(C)C21CC1` (as salt: hydrochloride) [Example 182] showed a melting point of 158 to 168 °C.
`Cc1ncccc1-c1ccc2c(c1)-n1cc(-c3cccc(F)c3)cc1C(=O)N(C)C21CC1` (as salt: hydrochloride) [Example 152] gave a melting point of 183 to 190 °C.
With `CN1C(=O)c2cccn2-c2cc(-c3ccc4nccn4c3)ccc2C12CC2` (as salt: hydrochloride) [Example 41, 5-Methyl-9-(imidazo[1,2-a]pyridin-6-yl)-spiro[benzo[f]pyrrolo[1,2-a][1,4]diazepine-6,1′-cyclopropan]-4(5H)-one] the melting point was > 250 °C.
For `Cc1ncccc1-c1ccc2c(c1)-n1cccc1C(=O)N(C)C2(C)C` (as salt: hydrochloride) [Example 223, 5,6,6-Trimethyl-9-(2-methyl-pyridin-3-yl)-5,6-dihydro-benzo[f]pyrrolo[1,2-a][1,4]diazepin-4-one], the melting point was 230 to 250 °C.
Compound `Cc1ncncc1-c1ccc2c(c1)-n1cccc1C(=O)N(C)C21CC1` (as salt: hydrochloride) [Example 59, 5-Methyl-9-(4-methyl-pyrimidin-5-yl)-spiro[benzo[f]pyrrolo[1,2-a][1,4]diazepine-6,1′-cyclopropan]-4(5H)-one] has a melting point of 140 to 147 °C.
In the case of `CC(=O)c1cc2n(c1)-c1cc(-c3cccnc3C)ccc1C1(CC1)N(C)C2=O` (as salt: hydrochloride) [Example 195], the melting point was 200 to 220 °C.
Work on `Cc1ncccc1-c1ccc2c(c1)-n1ccnc1C(=O)N(C)C2` (as salt: hydrochloride) [Example 216, 5-Methyl-9-(2-methylpyridin-3-yl)-5,6-dihydro-4H-benzo[f]imidazo[1,2-a][1,4]diazepin-4-one] yielded a melting point of 210 to 230 °C.
For `CN1C(=O)c2cc(-c3ccccc3)cn2-c2cc(-c3ccccn3)ccc2C12CC2` (as salt: hydrochloride) [Example 111, 5-Methyl-2-phenyl-9-(pyridin-2-yl)-spiro[benzo[f]pyrrolo[1,2-a][1,4]diazepine-6,1′-cyclopropan]-4(5H)-one], the melting point was 185 to 198 °C.
For `Cc1cncc(-c2ccc3c(c2)-n2cc(-c4ccccc4)cc2C(=O)N(C)C32CC2)c1` (as salt: hydrochloride) [Example 98, 5-Methyl-2-phenyl-9-(5-methyl-pyridin-3-yl)-spiro[benzo[f]pyrrolo[1,2-a][1,4]diazepine-6,1′-cyclopropan]-4(5H)-one], the melting point was 212 to 220 °C.
`Cc1cc(-c2ccc3c(c2)-n2cc(-c4ccccc4)cc2C(=O)N(C)C32CC2)ccn1` (as salt: hydrochloride) [Example 105, 5-Methyl-2-phenyl-9-(2-methyl-pyridin-4-yl)-spiro[benzo[f]pyrrolo[1,2-a][1,4]diazepine-6,1′-cyclopropan]-4(5H)-one] showed a melting point of 225 to 235 °C.
Work on `Cc1ncccc1-c1ccc2c(c1)-n1cc(-c3ccccc3)nc1C(=O)N(C)C21CC1` (as salt: hydrochloride) [Example 140, 9-(2-Methyl-pyridin-3-yl)-5-methyl-2-phenyl-spiro[benzo[f]imidazo[1,2-a][1,4]diazepine-6,1′-cyclopropan]-4(5H)-one] yielded a melting point of 235 to 240 °C.
